Converted amounts (≈) assume the structure as drawn.
Legend:
[1] = biological target: T1, Induced myeloid leukemia cell differentiation protein Mcl-1 (Homo sapiens, UniProt Q07820)
Bcl-2-like protein 1 [2] = biological target: T2, Bcl-2-like protein 1 (Homo sapiens, UniProt Q07817); assay: Binding affinity to Bcl-XL (unknown origin) assessed as inhibition constant by fluorescence polarization assay
Bcl-2-like protein 1 [3] = biological target: T2, Bcl-2-like protein 1
[4] = biological target: T1, Induced myeloid leukemia cell differentiation protein Mcl-1; remark: listed apart in the source
Description: Inhibition of N-terminal GST-tagged human MCL-1 (1 to 23 residues) extracted from Escherichia coli BL21 (DE3) by TR-FRET assay

[5] = biological target: T1, Induced myeloid leukemia cell differentiation protein Mcl-1; remark: listed apart in the source
Description: Binding affinity to MCL-1 (unknown origin) assessed as inhibition constant by TR-FRET assay

[6] = biological target: T3, Apoptosis regulator Bcl-2 (Homo sapiens, UniProt P10415); assay: Binding affinity to BCL-2 (unknown origin) assessed as inhibition constant incubated for 60 mins by TR-FRET assay
T3 sequence (P10415 whole entry): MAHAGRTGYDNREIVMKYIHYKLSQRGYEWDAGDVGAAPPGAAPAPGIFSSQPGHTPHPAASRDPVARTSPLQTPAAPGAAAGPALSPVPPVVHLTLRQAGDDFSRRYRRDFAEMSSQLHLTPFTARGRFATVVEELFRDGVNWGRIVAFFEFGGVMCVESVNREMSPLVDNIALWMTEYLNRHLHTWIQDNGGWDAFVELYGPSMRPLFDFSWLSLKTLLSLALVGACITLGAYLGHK

Bcl-2-like protein 1 [7] = biological target: T2, Bcl-2-like protein 1; assay: Binding affinity to BCL-XL (unknown origin) assessed as inhibition constant incubated for 60 mins by TR-FRET assay
MV4-11 [8] = assay: Antiproliferative activity against human MV4-11 cells
NCI-H929 [9] = assay: Antiproliferative activity against human NCI-H929 cells assessed as reduction in cell viability
[10] = Solubility of compound in water at pH 7 measured after 24 hrs by HPLC analysis
OPM-2 = assay: Antiproliferative activity against human OPM-2 cells
[11] = biological target: T1, Induced myeloid leukemia cell differentiation protein Mcl-1; remark: listed apart in the source
Description: Binding affinity to MCL-1 (unknown origin) assessed as inhibition constant

[12] = biological target: T3, Apoptosis regulator Bcl-2
Description: Binding affinity to BCL-2 (unknown origin) as assessed as inhibition constant

in vivo = conditions: mouse
[13] = Clearance in mouse at 1 mg/kg, iv; conditions: in vivo
NCI-H929 [14] = assay: Growth inhibition of human NCI-H929 cells
[15] = biological target: Voltage-gated inwardly rectifying potassium channel KCNH2 (Homo sapiens, UniProt Q12809)
Voltage-gated inwardly rectifying potassium channel KCNH2, sequence (Q12809 whole entry): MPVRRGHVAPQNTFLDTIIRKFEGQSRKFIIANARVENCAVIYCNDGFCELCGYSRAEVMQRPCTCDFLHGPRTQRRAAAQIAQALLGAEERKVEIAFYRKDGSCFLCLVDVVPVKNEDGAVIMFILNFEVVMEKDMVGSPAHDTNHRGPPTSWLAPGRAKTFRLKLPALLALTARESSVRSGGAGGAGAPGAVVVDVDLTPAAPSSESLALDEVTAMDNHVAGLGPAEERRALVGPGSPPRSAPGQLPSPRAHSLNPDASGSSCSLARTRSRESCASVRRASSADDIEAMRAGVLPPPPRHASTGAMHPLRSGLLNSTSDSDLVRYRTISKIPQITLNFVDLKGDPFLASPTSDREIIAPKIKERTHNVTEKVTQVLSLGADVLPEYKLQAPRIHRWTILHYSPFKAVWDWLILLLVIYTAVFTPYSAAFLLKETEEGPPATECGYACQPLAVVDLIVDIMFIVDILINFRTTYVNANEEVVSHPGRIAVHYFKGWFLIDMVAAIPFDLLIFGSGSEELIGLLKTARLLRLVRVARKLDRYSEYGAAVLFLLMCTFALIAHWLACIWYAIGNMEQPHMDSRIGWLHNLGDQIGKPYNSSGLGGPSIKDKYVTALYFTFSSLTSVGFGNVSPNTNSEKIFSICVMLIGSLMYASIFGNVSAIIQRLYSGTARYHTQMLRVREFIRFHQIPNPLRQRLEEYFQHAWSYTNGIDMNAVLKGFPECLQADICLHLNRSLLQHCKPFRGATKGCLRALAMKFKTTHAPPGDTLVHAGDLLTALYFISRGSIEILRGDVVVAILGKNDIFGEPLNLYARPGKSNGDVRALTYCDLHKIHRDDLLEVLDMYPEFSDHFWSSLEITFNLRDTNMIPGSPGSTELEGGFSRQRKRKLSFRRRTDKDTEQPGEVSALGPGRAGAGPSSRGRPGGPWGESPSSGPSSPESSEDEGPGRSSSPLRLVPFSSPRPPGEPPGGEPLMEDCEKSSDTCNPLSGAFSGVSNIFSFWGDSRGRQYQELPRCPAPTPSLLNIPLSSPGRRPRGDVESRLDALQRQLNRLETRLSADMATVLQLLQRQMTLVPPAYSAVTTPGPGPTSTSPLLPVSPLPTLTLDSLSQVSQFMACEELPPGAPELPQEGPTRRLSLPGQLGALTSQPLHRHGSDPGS

Bcl-2-like protein 1 [16] = biological target: T2, Bcl-2-like protein 1; assay: Binding affinity to BCL-XL (unknown origin) assessed as inhibition constant
[17] = biological target: T1, Induced myeloid leukemia cell differentiation protein Mcl-1; remark: listed apart in the source
HL-60 [18] = assay: Cytotoxicity against human HL-60 cells assessed as reduction in cell viability incubated for 48 hrs by CCK-8 assay; conditions: HL-60, 48 h
[19] = biological target: T1, Induced myeloid leukemia cell differentiation protein Mcl-1; assay: Binding affinity to N-terminal MCL-1 (unknown origin) using 5-FAM peptide as substrate by fluorescence polarization assay
Bcl-2-like protein 1 [20] = biological target: T2, Bcl-2-like protein 1; remark: listed apart in the source
Description: Inhibition of Bcl-XL (unknown origin) by FRET assay

[21] = biological target: T1, Induced myeloid leukemia cell differentiation protein Mcl-1; remark: listed apart in the source
Description: Inhibition of MCL-1 (unknown origin)

[22] = biological target: T1, Induced myeloid leukemia cell differentiation protein Mcl-1; remark: listed apart in the source
Description: Binding affinity to MCL-1 (unknown origin) assessed as inhibition constant by fluorescence polarization assay

[23] = Antiproliferative activity against human BL-2 cells; conditions: BL2
HL-60 [24] = assay: Growth inhibition of human HL-60 cells
MV4-11 [25] = assay: Antiproliferative activity against human MV4-11 cells assessed as reduction in cell viability
[26] = biological target: T3, Apoptosis regulator Bcl-2; remark: listed apart in the source
Description: Inhibition of Bcl-2 (unknown origin) by fluorescence polarization assay

MOLP-8 = assay: Antiproliferative activity against human MOLP8 cells

T1 sequence (Q07820 whole entry): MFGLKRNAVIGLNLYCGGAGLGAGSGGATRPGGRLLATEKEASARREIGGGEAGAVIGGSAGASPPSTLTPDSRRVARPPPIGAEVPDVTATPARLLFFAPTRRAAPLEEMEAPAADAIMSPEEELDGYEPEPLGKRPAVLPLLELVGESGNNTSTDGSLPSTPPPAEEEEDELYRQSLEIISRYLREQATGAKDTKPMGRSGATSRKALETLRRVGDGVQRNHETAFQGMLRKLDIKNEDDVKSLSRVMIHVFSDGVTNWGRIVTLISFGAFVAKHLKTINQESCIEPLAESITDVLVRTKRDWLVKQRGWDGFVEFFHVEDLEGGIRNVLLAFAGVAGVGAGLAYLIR
T2 sequence (Q07817 whole entry): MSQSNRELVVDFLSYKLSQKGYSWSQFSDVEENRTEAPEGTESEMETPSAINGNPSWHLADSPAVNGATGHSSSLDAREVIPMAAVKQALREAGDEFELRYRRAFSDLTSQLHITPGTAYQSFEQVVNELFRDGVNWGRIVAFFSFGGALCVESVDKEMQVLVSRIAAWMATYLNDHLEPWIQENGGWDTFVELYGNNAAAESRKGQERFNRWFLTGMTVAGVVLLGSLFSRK

With Cc1ccc(S(=O)(=O)/N=C2/C=C(Sc3nc[nH]n3)C(=O)c3ccccc32)cc1 the IC50 [1] was 14 nM.

With CC(C)c1ccccc1Cc1cc(C(=O)Nc2ccc(S(=O)(=O)c3ccccc3C(C)(C)C)cc2)c(O)c(O)c1O the Ki (Bcl-2-like protein 1 [2]) was 290 nM.

O=C(c1ccccc1O)c1[nH]c(Cl)c(Cl)c1-n1c(C(=O)c2ccccc2O)cc(Cl)c1Cl gave an IC50 (Bcl-2-like protein 1 [3]) of over 100000 nM and an IC50 [4] of 10100 nM.

Molecule O=C(O)CSc1ccc(C(=O)c2[nH]c(Cl)c(Cl)c2-n2c(C(=O)c3ccc(SCC(=O)O)cc3O)cc(Cl)c2Cl)c(O)c1 has an IC50 (Bcl-2-like protein 1 [3]) of over 100000 nM.

O=C(O)Cn1cc(-c2cc(O)c(C(=O)c3[nH]c(Cl)c(Cl)c3-n3c(C(=O)c4cc(Cl)c(-c5cn(CC(=O)O)nn5)cc4O)cc(Cl)c3Cl)cc2Cl)nn1 showed an IC50 (Bcl-2-like protein 1 [3]) of over 50000 nM.

Work on Cc1nn(C)c(C)c1-c1cccc2c(CCCOc3cccc4ccccc34)c(C(=O)O)n(CCN3CCOCC3)c12 yielded a Ki [5] of 1 nM.

Cc1nn(C)c(COc2ccc(N3CCN(S(=O)(=O)N(C)C)CC3)cc2)c1-c1cccc2c(CCCOc3cccc4ccccc34)c(C(=O)O)n(CCN3CCOCC3)c12 showed a Ki [6] of 132 nM, a Ki (Bcl-2-like protein 1 [7]) of over 660 nM and an EC50 (MV4-11 [8]) of 1860 nM.

CC(=O)N1CCN(c2ccc(OCc3nn(C)c(C)c3-c3cccc4c(CCCOc5cccc6ccccc56)c(C(=O)O)n(Cc5cccnc5)c34)cc2)CC1 gave a Ki [5] of 1 nM.

Cc1c(-c2cccc3c(CCCOc4cccc5ccccc45)c(C(=O)O)n(C)c23)c(COc2ccc(B(O)O)c(C=O)c2)nn1C showed an IC50 [1] of 4200 nM.

Molecule Cc1c(-c2c(-c3ccc(F)o3)sc3ncnc(O[C@H](Cc4ccccc4OCc4ccnn4CC(F)(F)F)C(=O)O)c23)ccc(OCCN2CCN(C)CC2)c1Cl has an IC50 (NCI-H929 [9]) of 1 nM.

COc1ccccc1-c1nccc(COc2ccccc2C[C@@H](Oc2ncnc3sc(-c4ccc(F)cc4)c(-c4ccc(OCCN5CCN(C)CC5)c(Cl)c4C)c23)C(=O)O)n1 gave an IC50 (NCI-H929 [9]) of 1 nM.

Molecule CO[C@H]1/C=C/C[C@H](C)[C@@H](C)S(=O)(=O)NC(=O)c2ccc3c(c2)N(C[C@@H]2CCO[C@H]21)C[C@@]1(CCCc2cc(Cl)ccc21)CO3 has a solubility at 24 h [10] of under 0.1 µM and an IC50 (OPM-2) of 432 nM.

For CO[C@H]1/C(F)=C/C[C@H](C)[C@@H](C)S(=O)(=O)NC(=O)c2ccc3c(c2)N(C[C@@H]2CCO[C@H]21)C[C@@]1(CCCc2cc(Cl)ccc21)CO3, the solubility at 24 h [10] was 8.3 µM (≈ 5.37 µg/mL) and the IC50 (OPM-2) was 191 nM.

In the case of CO[C@@H]1/C(F)=C/C[C@H](C)[C@@H](C)S(=O)(=O)NC(=O)c2ccc3c(c2)N(C[C@@H]2CCO[C@H]21)C[C@@]1(CCCc2cc(Cl)ccc21)CO3, the solubility at 24 h [10] is reported as 11.2 µM (≈ 7.25 µg/mL) and the IC50 (OPM-2) is reported as 1120 nM.

Work on Cc1c(-c2cccc3c(CCCOc4cccc5ccccc45)c(C(=O)O)n(C)c23)c(COc2ccccc2)nn1C yielded an IC50 [1] of 4200 nM.

Molecule Cc1cc(OCCCn2cc(-c3cccc(C(F)(F)F)c3)c3cc(C(=O)O)ccc32)cc(C)c1Cl has a Ki [11] of 400 nM and a Ki [12] of 560 nM.

Cc1cc(Cl)cc(C)c1OCCCc1c2n(c3c(-c4c(C)nn(C)c4C)c(Cl)ccc13)CCCN(c1cn(C)c3ccc(C(=O)O)cc13)C2=O showed a half-life (in vivo) of 34.2 min, a clearance [13] of 245 mL/min/kg and a Ki [5] of under 0.1 nM. It also gave a GI50 (NCI-H929 [14]) of 300 nM.

C#Cc1ccc(OCc2nn(C)c(C)c2-c2cccc3c(CCCOc4cccc5ccccc45)c(C(=O)O)n(C)c23)cc1C=O showed an IC50 [1] of 4200 nM.

Work on CCOP(=O)(OCC)c1ccc(C(=O)c2[nH]c(Cl)c(Cl)c2-n2c(C(=O)c3ccc(P(=O)(OCC)OCC)cc3O)cc(Cl)c2Cl)c(O)c1 yielded an IC50 (Bcl-2-like protein 1 [3]) of over 100000 nM.

With COCCOCc1nn(C)c2c1CSCc1cc(n(C)n1)CSc1cc(c3ccc(F)cc3c1)OCCCc1c(C(=O)O)n(CCN3CCOCC3)c3c-2c(Cl)ccc13 the IC50 [15] was over 30000 nM, the solubility at 24 h [10] was 550 µM (≈ 475 µg/mL) and the Ki (Bcl-2-like protein 1 [7]) was 0.02 nM.

Work on Cc1c(-c2cccc3c(CCCOc4cccc5ccccc45)c(C(=O)O)n(C)c23)c(COc2ccc(S(=O)(=O)F)cc2)nn1C yielded an IC50 [1] of 4200 nM.

Cc1cc(Cl)cc(C)c1OCCCc1c2n(c3c(-c4c(C)nn(C)c4C)c(Cl)ccc13)[C@H](C)CCN(c1cn(C)c3ccc(C(=O)O)cc13)C2=O showed a Ki [5] of 0.097 nM and a GI50 (NCI-H929 [14]) of 190 nM.

Molecule CC[C@@H]1CC/C=C/[C@H](O)[C@@H]2CC[C@H]2CN2C[C@@]3(CCc4cc(Cl)ccc43)COc3ccc(cc32)C(=O)NS1(=O)=O has an IC50 [11] of 0.05 nM.

COCCOCc1nn(C)c2c1CSCc1cc(n(C)n1)CSc1cc(c3ccc(F)cc3c1)OCCCc1c(C(=O)O)n(C)c3c-2c(Cl)ccc13 gave an IC50 [15] of over 30000 nM, a solubility at 24 h [10] of 580 µM (≈ 443 µg/mL) and a Ki (Bcl-2-like protein 1 [7]) of 0.018 nM.

Molecule COc1ccccc1-c1nccc(COc2ccc3cc2C[C@H](C(=O)O)Oc2ncnc4sc(-c5ccc(F)cc5)c(c24)-c2ccc(c(Cl)c2C)CN(CCN2CCN(C)CC2)CO3)n1 has a Ki [11] of 5.54 nM, a Ki (Bcl-2-like protein 1 [16]) of over 660 nM and a Ki [12] of over 1200 nM.

O=C(O)CCn1cc(-c2cccc(C(F)(F)F)c2)c2ccc(-c3ccccc3)cc21 gave a Ki [11] of 410 nM and a Ki [12] of 2380 nM.

For COCCOCn1nc(C)c2c1CSCc1cc(n(C)n1)CCc1cc(c3ccc(F)cc3c1)OCCCn1c(C(=O)O)c(C)c3c-2c(Cl)ccc31, the IC50 [15] was over 30000 nM, the solubility at 24 h [10] was 3140 µM (≈ 2340 µg/mL) and the Ki (Bcl-2-like protein 1 [7]) was 0.015 nM.

CC(C)CN1C[C@@H](c2ccc(Cl)cc2Cl)Oc2ccc(C(=O)O)cc21 showed an IC50 [17] of 55000 nM.

Work on COc1n[nH]cc1C(=O)NS1(=O)=NC(=O)c2ccc3c(c2)N(C[C@@H]2CCO[C@H]2[C@H](OC)/C(F)=C/C[C@H](C)C1)C[C@@]1(CCCc2cc(Cl)ccc21)CO3 (some centres not stated) yielded a solubility at 24 h [10] of 520 µM (≈ 393 µg/mL) and an IC50 (OPM-2) of 44 nM.

Work on Cc1ccc(Oc2ccc(O)c(O)c2)c(-c2ccsc2S(=O)(=O)NCCNC(=O)Nc2cc(C(F)(F)F)cc(C(F)(F)F)c2)c1 yielded an IC50 (HL-60 [18]) of 3700 nM and a Ki [19] of 490 nM.

Cc1cc(S(=O)(=O)NC(=O)c2cc(C)c(-c3cccc4c(CCCOc5cccc6ccccc56)c(C(=O)O)nn34)c(C)c2)ccc1N[C@H](CCN(C)C)CSc1ccccc1 gave an IC50 (Bcl-2-like protein 1 [20]) of 3 nM and an IC50 [21] of 8 nM.

CC1(C)CC[C@@H](OC(=O)/C=C/c2ccccc2)[C@]2(C)C(C=O)C(C=O)=C[C@H](O)[C@@]12C (some centres not stated) showed an IC50 [15] of over 10000 nM, a Ki [22] of 300 nM and an IC50 [23] of 4000 nM.

In the case of Cc1c(Cl)c2c(Cl)c(C)c1-c1c(-c3ccc(F)cc3)sc3ncnc(c13)O[C@@H](C(=O)O)Cc1cc(ccc1OCc1ccnc(-c3ccc(OC[C@H]4COCCO4)cc3)n1)OCC(CN1CCN(C)CC1)O2 (some centres not stated), the Ki [5] is reported as 0.01 nM and the IC50 (NCI-H929 [9]) is reported as 40 nM.

O=S(=O)(Nc1cc(Sc2ccco2)c(O)c2ccccc12)c1cccs1 showed a Ki [11] of over 100000 nM.

CC(=O)N1CCN(c2ccc(OCc3cccc(-c4ccc5c(-c6cccc(C(F)(F)F)c6)cn(CCC(=O)O)c5c4)c3)cc2)CC1 showed a GI50 (HL-60 [24]) of 3150 nM and a Ki [11] of 370 nM.

CO[C@@]1(CN2CCN3CCCC[C@@H]3C2)/C=C/C[C@H](C)[C@@H](C)S(=O)(=O)NC(=O)c2ccc3c(c2)N(C[C@@H]2CC[C@H]21)C[C@@]1(CCCc2cc(Cl)ccc21)CO3 showed an IC50 (OPM-2) of 50 nM and an IC50 (MV4-11 [25]) of 150 nM.

For Cc1cc(OCCCn2ccc3cc(C(=O)O)ccc32)cc(C)c1Cl, the Ki [11] was 8850 nM and the Ki [12] was 12900 nM.

With Cc1cc2c(C(C)C)c(O)c(O)cc2c(O)c1-c1c(C)cc2c(C(C)C)c(O)c(O)cc2c1O [APOGOSSYPOL] the IC50 [26] was 2800 nM.

Cc1c2c(nn1C)CSCc1cc(n(C)n1)CSc1cc(c3ccccc3c1)OCCCc1c(C(=O)O)n(C)c3c-2c(Cl)ccc13 [AZD-5991] showed an EC50 (MOLP-8) of over 16000 nM.

COC1=CC(c2cc3ccccc3[nH]2)=N/C1=C\c1[nH]c(C)cc1C [OBATOCLAX] gave a Ki [11] of over 1000 nM, a Ki [12] of 200 nM and a Ki (Bcl-2-like protein 1 [2]) of over 1000 nM.

Work on CO[C@H]1/C=C/C[C@H](C)[C@@H](C)S(=O)(=O)NC(=O)c2ccc3c(c2)N(C[C@@H]2CC[C@H]21)C[C@@]1(CCCc2cc(Cl)ccc21)CO3 [TAPOTOCLAX] yielded an IC50 (MV4-11 [25]) of 150 nM.

Reference: ChEMBL document CHEMBL6103561, “Chemical dissection of selective myeloid leukemia-1 inhibitors: How they were found and evolved” (Eur J Med Chem, 2025)
